The test system of this experiment is relapsed AML cells. As to the kind of experiment: Drug sensitivity assay, 1,536-well, 3-day culture with individual approved drugs at 10 μM, viability by alamarBlue. It is filed as cell-based, human. The method in brief:
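FACS-sorted viable myeloid blasts from thawed AML samples, 4,000-4,500 cells per 5 μL well, cultured in IMDM with 15% BIT, SCF, FLT3L, IL-3, G-CSF. Drugs added per well; after three days percentage of live cells measured to gauge killing.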
A general note: Resazurin is reduced to fluorescent resorufin, in cell work by metabolically active cells.

Where [1] appears, read: number of relapsed AML cases out of 18 tested with >70% cell death, 10 μM, 3-day culture.

Structures can show the parent of a compound that is named as a salt. Where two headings read alike, the source gives them in different places.

Take `CCNC1=Nc2ccc(Cl)cc2C(C)(c2ccccc2)O1` (centres unmarked) [ETIFOXINE]: the “#Cases >70% cell death” value under setting [1] was 4.

Regarding `Clc1ccc(CO/N=C(\Cn2ccnc2)c2ccc(Cl)cc2Cl)c(Cl)c1` [OXICONAZOLE], the “#Cases >70% cell death” value under setting [1] is reported as 1.

For the compound BLEOMYCIN, the “#Cases >70% cell death” value under setting [1] is given as 2.

Consider `N[C@@H](Cc1ccc(N(CCCl)CCCl)cc1)C(=O)O`, for which, under setting [1], the “#Cases >70% cell death” value is 4. For `COC(=O)C1=C(C)NC(C)=C(C(=O)OCCCN2CCC(c3ccccc3)(c3ccccc3)CC2)[C@@H]1c1cccc([N+](=O)[O-])c1` [DEXNIGULDIPINE], the “#Cases >70% cell death” value is reported as 8. On to `Cn1cc(-c2[nH]c3cc(NC(=O)[C@H](N)C4CCCCC4)cc4c3c2C=NNC4=O)cn1` [PF-00477736], for which the “#Cases >70% cell death” value under setting [1] turned out to be 13.

Consider `N[C@@H]1CONC1=O` [D-CYCLOSERINE], for which, under setting [1], the “#Cases >70% cell death” value is on record as 1. Still for that read-out and setting: as for `COc1cccc([C@@H](C)NCCCc2ccccc2Cl)c1` [TECALCET HYDROCHLORIDE], the figure is 1; as for `CC(=O)c1ccc2c(c1)N(CCCN(C)C)c1ccccc1S2` [ACEPROMAZINE MALEATE], 2; as for `C[C@]12CC[C@H](O)C[C@H]1CC[C@@H]1[C@@H]2C[C@@H](O)[C@]2(C)[C@@H](C3=CC(=O)OC3)CC[C@]12O` [DIGOXIGENIN], 18. On the same count and under the same terms, with AMONAFIDE MALATE the figure was 8. For `C#Cc1cccc(Nc2ncnc3cc(OCCOC)c(OCCOC)cc23)c1` [ERLOTINIB], the “#Cases >70% cell death” value under setting [1] came out at 6.

With `Cc1ccc(Nc2nccc(N(C)c3ccc4c(C)n(C)nc4c3)n2)cc1S(N)(=O)=O` [PAZOPANIB], the “#Cases >70% cell death” value under setting [1] was found to be 4.

Consider `Nc1nc(Cl)nc2c1ncn2[C@H]1C[C@H](O)[C@@H](CO)O1` [CLADRIBINE], for which the “#Cases >70% cell death” value under setting [1] was found to be 17. Still for that read-out and setting: with `CCCCCN(C)CCC(O)(P(=O)(O)O)P(=O)(O)O` [IBANDRONATE] the figure was 1; with `O=c1[nH]cc(F)c(=O)[nH]1` [FLUOROURACIL], 4. The same measure, in the same setting: with `COc1cccc2c1C(=O)c1c(O)c3c(c(O)c1C2=O)C[C@@](O)(C(C)=O)C[C@@H]3O[C@H]1C[C@H](N)[C@H](O)[C@H](C)O1` [DAUNORUBICIN] the figure was 18; with `CCCOc1ccc(C(=O)OCCN(CC)CC)cc1N` [PROPARACAINE], 1; with `C[C@@H]1C[C@H]2[C@@H]3CCC4=CC(=O)C=C[C@]4(C)[C@@]3(Cl)[C@@H](O)C[C@]2(C)[C@@]1(OC(=O)c1ccco1)C(=O)CCl` [MOMETASONE FUROATE], 2. In the case of `Nc1c2ccccc2nc2ccccc12` [AMINACRINE], the “#Cases >70% cell death” value under setting [1] was 18. `CCOC(=O)c1c(N)sc2c1CCN(Cc1ccccc1)C2` [Y-3642]: under setting [1], the “#Cases >70% cell death” value amounted to 1. The same measure, in the same setting: with `CN1CCN(CCCN2c3ccccc3Sc3ccc(Cl)cc32)CC1` [PROCHLORPERAZINE] the figure was 6. The same measure, in the same setting: as for `CC[n+]1c(-c2ccccc2)c2cc(N)ccc2c2ccc(N)cc21` [HOMIDIUM BROMIDE], the figure is 1; as for `CC(C)(C)CC(C)(C)c1ccc(OCCOCC[N+](C)(C)Cc2ccccc2)cc1` [BENZETHONIUM CHLORIDE], 16; as for `CC[C@@]1(O)C(=O)OCc2c1cc1n(c2=O)Cc2cc3ccccc3nc2-1` [CAMPTOTHECIN], 12. Turning to TYLOXAPOL, the “#Cases >70% cell death” value under setting [1] is reported as 8.

`CO[C@H]1C[C@H](O[C@@H]2/C(C)=C/C[C@@H]3C[C@@H](C[C@]4(CC[C@H](C)[C@@H](C5CCCCC5)O4)O3)OC(=O)[C@@H]3C=C(C)/C(=N/O)[C@H]4OC/C(=C\C=C\[C@@H]2C)[C@]43O)O[C@@H](C)[C@@H]1O` [SELAMECTIN]: under setting [1], the “#Cases >70% cell death” value turned out to be 18.

For `C=C1C[C@H]2[C@@H]3C=C(C)C4=CC(=O)CC[C@]4(C)[C@H]3CC[C@]2(C)[C@@]1(OC(C)=O)C(C)=O` [MELENGESTROL ACETATE], the “#Cases >70% cell death” value under setting [1] is 2. For the compound `O=C(/C=C/c1cccnc1)NCCCCC1CCN(C(=O)c2ccccc2)CC1` [APO-866], the “#Cases >70% cell death” value under setting [1] worked out at 17. Take `CNC[C@H](O)[C@@H](O)[C@H](O)[C@H](O)CO` [MEGLUMINE]: the “#Cases >70% cell death” value under setting [1] was 1. Turning to `CC(C)[C@H](N)C(=O)OCCOCn1cnc2c(=O)[nH]c(N)nc21` [VALACICLOVIR], the “#Cases >70% cell death” value under setting [1] came out at 1. Consider `CCCCN(CCCC)CCCOC(=O)c1ccc(N)cc1` [BUTACAINE], for which the “#Cases >70% cell death” value under setting [1] is reported as 1. On to `CC(=O)OC[C@H]1O[C@@H]([S-])[C@H](OC(C)=O)[C@@H](OC(C)=O)[C@@H]1OC(C)=O.CCP(CC)CC.[Au+]` [AURANOFIN], for which the “#Cases >70% cell death” value under setting [1] came to 17. On to `CCN(CC)CCN1C(=O)c2c(c3c4cccc(Cl)c4n([C@@H]4O[C@H](CO)[C@@H](OC)[C@H](O)[C@H]4O)c3c3[nH]c4c(Cl)cccc4c23)C1=O` [BECATECARIN], for which the “#Cases >70% cell death” value under setting [1] was 18.

As for `CCC(=O)O[C@]1(C(=O)CCl)[C@@H](C)C[C@H]2[C@@H]3CCC4=CC(=O)C=C[C@]4(C)[C@@]3(F)[C@@H](O)C[C@@]21C` [CLOBETASOL PROPIONATE], the “#Cases >70% cell death” value under setting [1] is 4. On the same count and under the same terms, with `CCc1cc(Cl)c(OC)c(C(=O)NC[C@@H]2CCCN2CC)c1O` [ETICLOPRIDE HYDROCHLORIDE] the figure was 1. On the same count and under the same terms, as for `C#C[C@]1(O)CC[C@H]2[C@@H]3CCc4cc(OC5CCCC5)ccc4[C@H]3CC[C@@]21C` [QUINESTROL], the figure is 15; as for `CCCCCCCCCCCCCCCC[N+](C)(C)CCN(Cc1ccc(OC)cc1)c1ncccn1` [THONZONIUM BROMIDE], 18. Still for that read-out and setting: with `COc1ccc2c(c1)[nH]c1c(C)nccc12` [HARMINE] the figure was 3; with `O=C(O)CCCCN(CCc1ccccc1OCc1ccc(CCc2ccccc2)cc1)Cc1ccc(C(=O)O)cc1`, 1. As for `Cc1ccc2c(Br)cc(Br)c(OC(=O)c3ccccc3)c2n1` [BROXALDINE], under setting [1], the “#Cases >70% cell death” value is 2. Same read-out and setting: as for `CCCSc1ccc2nc(NC(=O)OC)[nH]c2c1` [ALBENDAZOLE], the figure is 9; as for `CCCCCCCCCCCC[N+](C)(C)CCOc1ccccc1` [DOMIPHEN BROMIDE], 16; as for `Cc1cccc(C)c1N=C1NCCCS1` [XYLAZINE], 4. Still for that read-out and setting: with `COc1ccc(C2CNC(=O)C2)cc1OC1CCCC1` (centres unmarked) [ROLIPRAM] the figure was 1. Still for that read-out and setting: with `CC(C)C(=O)Nc1ccc([N+](=O)[O-])c(C(F)(F)F)c1` [FLUTAMIDE] the figure was 2; with `C=CC(=O)N1CCC[C@@H](n2nc(-c3ccc(Oc4ccccc4)cc3)c3c(N)ncnc32)C1` [IBRUTINIB], 2.

For `COc1cc([C@@H]2c3cc4c(cc3[C@H](O)[C@H]3COC(=O)[C@H]23)OCO4)cc(OC)c1OC` [PODOFILOX], under setting [1], the “#Cases >70% cell death” value stood at 13. On the same count and under the same terms, as for `C#Cc1cccc(Nc2ncnc3cc(OCCOC)c(OCCO)cc23)c1` [OSI-420], the figure is 3; as for `CC(=O)[C@@]1(O)CC[C@H]2[C@@H]3CCC4=CC(=O)CC[C@]4(C)[C@H]3CC[C@@]21C` [HYDROXYPROGESTERONE], 2; as for `CCCCOc1ccc(OCCCN2CCOCC2)cc1` [PRAMOXINE], 1. The same measure, in the same setting: as for `CC(=O)OCC(=O)[C@@]12OC3(CCCC3)O[C@@H]1C[C@H]1[C@@H]3CCC4=CC(=O)C=C[C@]4(C)[C@@]3(F)[C@@H](O)C[C@@]12C` [AMCINONIDE], the figure is 1; as for `N#Cc1cc(CN2CCC(Nc3ncnc4sc(Cl)cc34)CC2)ccc1F` [PRX-8066], 1; as for `CC(C)C[C@H](NC(=O)CNC(=O)c1cc(Cl)ccc1Cl)B1OC(=O)C(CC(=O)O)(CC(=O)O)O1` [MLN9708], 1. Still for that read-out and setting: as for `N#CC[C@H](C1CCCC1)n1cc(-c2ncnc3[nH]ccc23)cn1` [RUXOLITINIB], the figure is 6. As for NONOXYNOL-9, the “#Cases >70% cell death” value under setting [1] amounted to 2. On to `CC(C)/N=c1\cc2n(-c3ccc(Cl)cc3)c3ccccc3nc-2cc1Nc1ccc(Cl)cc1` [CLOFAZIMINE], for which the “#Cases >70% cell death” value under setting [1] was 6. Still for that read-out and setting: with `CS(=O)(=O)N1CCc2c(-c3cnc(N)nc3)nc(N3CCOCC3)nc21` [CH5132799] the figure was 3; with `CCCCCCCCCCCCCCCC[N+](C)(C)C.[Br-]` [CETRIMONIUM BROMIDE], 17. Consider `O=C(O)C1[O][Sb]2[O]C(=O)C([O]2)C(C(=O)O)[O][Sb]2[O]C(=O)C1[O]2` (centres unmarked) [ANTIMONY POTASSIUM TARTRATE TRIHYDRATE], for which the “#Cases >70% cell death” value stood at 3. On to `O=C(Nc1ccc(-c2ccnc(Nc3ccc(N4CCOCC4)cc3)n2)cc1)C1CCCN1` (centres unmarked) [XL019], for which, under setting [1], the “#Cases >70% cell death” value amounted to 3. The same measure, in the same setting: as for `COc1cc2nccc(Oc3ccc(NC(=O)C4(C(=O)Nc5ccc(F)cc5)CC4)cc3)c2cc1OC` [CABOZANTINIB], the figure is 2; as for `NC[C@H]1O[C@H](O[C@H]2[C@H](O)[C@@H](O[C@H]3O[C@H](CO)[C@@H](O)[C@H](N)[C@H]3O)[C@H](N)C[C@@H]2N)[C@H](N)C[C@@H]1O` [TOBRAMYCIN], 1; as for `C[C@@H]1O[C@@H](O[C@H]2C[C@@H](O)[C@]3(CO)[C@H]4[C@H](O)C[C@]5(C)[C@@H](C6=CC(=O)OC6)CC[C@]5(O)[C@@H]4CC[C@]3(O)C2)[C@H](O)[C@H](O)[C@H]1O` [OUABAIN], 18. Same read-out and setting: as for `NNC(=O)c1ccncc1` [ISONIAZID], the figure is 1. On the same count and under the same terms, with `COc1ccc(CN2CCN(C(c3ccc(F)cc3)c3ccc(F)cc3)CC2)c(OC)c1OC` [LOMERIZINE] the figure was 7; with `CC(=O)O[C@@]12CO[C@@H]1C[C@H](O)[C@@]1(C)C(=O)[C@H](O)C3=C(C)[C@@H](OC(=O)[C@H](O)[C@@H](NC(=O)OC(C)(C)C)c4ccccc4)C[C@@](O)([C@@H](OC(=O)c4ccccc4)[C@H]21)C3(C)C` [DOCETAXEL], 5; with `N=C(N)c1ccc(OCCCCCOc2ccc(C(=N)N)cc2)cc1` [PENTAMIDINE], 2.

Values taken from US20210405025A1, “IDENTIFYING COMPOUNDS FOR TREATING CANCER AND USE THEREOF” (THE UAB RESEARCH FOUNDATION, priority 2018, published 2021).
